In patent publication US20250195684A1, “DELIVERY METHODS USING PLATELETS” (Children's Hospital Medical Center, priority 2022, published 2025):

What was measured:
[1] = system: HUVECs; experiment: Co-culture of MEG-01-GFP megakaryocyte-derived GFP-positive platelets with HUVECs (protein delivery); type: cell-based, human; conditions: 80 μM concentration
Method: In addition to nucleic acids such as mRNA, modified platelets were used to deliver protein. MEG-01 megakaryocytes were transduced with pLV-GFP lentivirus to induce expression of GFP (MEG-01-GFP). These megakaryocytes were cultured to produce GFP-positive platelets (FIG. 4A), which were co-cultured with HUVECs.
In a separate experiment, GFP-positive platelets were co-cultured with mCherry-expressing HUVECs.

[2] = system: human iPSC line 1383D6; experiment: Effect of cytochalasin B on platelet-based mCherry mRNA delivery; type: cell-based; conditions: 100 nM or 350 nM
Method: The effects of cytochalasin B (CytoB), which is an inhibitor of tunneling nanotubes, on platelet-based mRNA delivery were investigated in the exemplary human iPSC line 1383D6. The cells were plated at a density of 2×10^5 cells/well in a 12 well plate and grown overnight at 37° C. with 5% CO2. Platelets were loaded with 5 μg of mCherry mRNA using Lipofectamine MessengerMax as described herein. The mRNA loaded platelets were further prepared by centrifuging at 1800×g at room temperature for 10 min, washing with EBM, and resuspending in fresh 600 μL culture media. Then, 100 μL of the mRNA loaded platelets (corresponding to 0.8 μg mRNA/well) containing 100 nM or 350 nM CytoB (or without CytoB as control) was added to the cells in a total volume of 1 mL culture media. After 24 hour incubation at 37° C. with 5% CO2, fluorescent images were obtained with a BZ-X810 fluorescence microscope (Keyence) using a TRITC filter. Subsequently, the cells were harvested using 0.25% trypsin-EDTA solution, washed twice with PBS, and centrifuged. The cell pellet was dispersed using PBS containing 3% FBS, stained with LIVE/DEAD Fixable Green Dead Cell Stain Kit (Thermo Fisher Scientific) according to manufacturer's instructions. […] Relative value in mean fluorescence intensity (MFI) was calculated with respect to the control samples without CytoB.

[3] = system: 293T cells; experiment: Screening of anchoring protein HA fusion constructs, PE anti-HA flow cytometry; type: cell-based; conditions: live cells, gated on eGFP
Description: FIG. 15A depicts exemplary constructs used for the determination and identification of cell surface targeting ligands, which can be, for example, expressed on platelets to increase cell type specificity. The exemplary constructs involve custom TetOn expression vectors with left/right homologue arms to AAVS1. TetOn allows for conditional expression of targeting ligands or epitopes fused to the N- and C-termini of platelet cell surface markers (e.g. CD41, CD42a, CD61). Downstream cGFP through a P2A linker allows for successful identification of cells expressing the fusion vector. FIG. 15B depicts flow cytometry plots of 293T cells transfected with the exemplary N- or C-terminal fusion vectors depicted in FIG. 15A using CD41, CD42a, and CD61. Live cells were stained with a PE anti-HA fluorescent antibody and gated upon cGFP expression during flow cytometry analysis. PE fluorescence is shown against control (untransfected) 293T cells stained with PE anti-HA (shaded).

Question: Which “transformation of HUVECs by platelets treated with inhibitor” value [1] does the source give for `O=C(N/N=C/c1ccc(O)c(O)c1)c1cc2ccccc2cc1O` [dynasore] here?
Answer: The value was “unable to transform HUVECs”.

Question: For `C=C1[C@@H](C)[C@H]2[C@H](Cc3ccccc3)NC(=O)[C@]23OC(=O)/C=C/[C@H](O)CCC[C@@H](C)C/C=C/[C@H]3[C@@H]1O` [CytoB, cytochalasin B], which “effect on platelet-based mRNA delivery” value [2] is on record?
Answer: Its value is “Prevents Platelet-Based mRNA Delivery”.

Question: And the “cell death (MFI of green dead cell stain)” value ([2]; 24 hour)?
Answer: The value was “does not cause cell death”.

Question: Which “exposure of HA epitope on cell surface” value [3] does the source give for “C-terminal fusion of CD61 with an HA epitope: TetOn expression construct of platelet surface marker CD61 fused C-terminally to an HA epitope, with P2A eGFP” here?
Answer: Its value is “robust exposure of the HA epitope on the 293T cell surface”.

Question: And the “exposure of HA epitope on cell surface” value ([3]; listed as C-terminal CD61-HA fusion construct)?
Answer: The value was “results in anti-HA fluorescence on the cell surface”.
